Laboratory results published in ChEMBL document CHEMBL4732190, “Identification of Potent and Long-Acting Single-Chain Peptide Mimetics of Human Relaxin-2 for Cardiovascular Diseases” (J Med Chem, 2021).
*1 amine or outer side, *2 acyl side, *3 side chain or, on linkers, in order; H or OH if unused. Where a SMILES comes first, the peptide text is derived from it. [ ]: non-standard residue; d: D form. β2hAla(2S) = C[C@@H](CN[*:1])C(=O)[*:2]; X4 = CCCC[C@H](O[*:1])C(=O)[*:2]; hLys = NCCCCC[C@H](N)C(=O)O

Assays:
[1] = biological target: T1, Relaxin receptor 1 (Homo sapiens, UniProt Q9HBX9); assay: Agonist activity at RXFP1 endogenously expressed in human OVCAR-5 cells assessed as increase in IBMX-induced cAMP accumulation pretreated with IBMX for 40 mins followed by compound addition and measured after 30 mins by HTRF assay; assay type: functional, cell-based
T1 sequence (Q9HBX9 whole entry): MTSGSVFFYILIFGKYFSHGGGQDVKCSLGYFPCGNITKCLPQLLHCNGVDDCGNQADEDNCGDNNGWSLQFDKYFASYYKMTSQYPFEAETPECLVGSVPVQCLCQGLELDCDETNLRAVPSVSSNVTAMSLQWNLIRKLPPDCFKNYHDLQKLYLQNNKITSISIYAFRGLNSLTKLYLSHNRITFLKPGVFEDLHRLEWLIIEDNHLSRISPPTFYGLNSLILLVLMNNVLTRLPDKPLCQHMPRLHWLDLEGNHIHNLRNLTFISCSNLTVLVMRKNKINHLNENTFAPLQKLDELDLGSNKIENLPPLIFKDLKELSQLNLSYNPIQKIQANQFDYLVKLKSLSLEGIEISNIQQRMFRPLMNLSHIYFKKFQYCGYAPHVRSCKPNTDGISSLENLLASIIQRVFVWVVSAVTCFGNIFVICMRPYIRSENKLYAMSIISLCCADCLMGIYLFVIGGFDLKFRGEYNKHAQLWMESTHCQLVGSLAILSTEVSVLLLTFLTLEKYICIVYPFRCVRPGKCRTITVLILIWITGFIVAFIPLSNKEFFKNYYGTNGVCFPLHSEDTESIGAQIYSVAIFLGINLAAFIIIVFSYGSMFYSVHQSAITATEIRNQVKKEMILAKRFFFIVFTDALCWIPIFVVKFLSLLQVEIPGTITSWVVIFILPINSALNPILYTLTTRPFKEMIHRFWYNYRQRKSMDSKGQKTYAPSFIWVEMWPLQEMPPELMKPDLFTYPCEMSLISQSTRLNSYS

[2] = biological target: T2, Relaxin receptor 1 (Homo sapiens) (UniProt Q9HBX9); assay: Agonist activity at RXFP1 endogenously expressed in human OVCAR-5 cells assessed as increase in IBMX-induced cAMP accumulation pretreated with IBMX for 40 mins followed by compound addition and measured after 30 mins by HTRF assay relative to relaxin; assay type: functional, cell-based; settings: filed as agonist
T2 sequence (whole entry): T1 sequence (Q9HBX9 whole entry)

Molecule	EC50 [1] [µM]	Emax [2] [%]
CC[C@H](C)[C@H](NC(=O)[C@H](CCC(N)=O)NC(=O)[C@H](C)NC(=O)[C@H](CCCNC(=N)N)NC(=O)[C@@H](NC(=O)[C@H](CC(C)C)NC(=O)[C@H](CCC(=O)O)NC(=O)[C@H](CCCNC(=N)N)NC(=O)CNC(=O)[C@H](CO)NC(=O)[C@H](CC(C)C)NC(=O)[C@H](CCCCN)NC(=O)[C@@H](NC(=O)[C@@H](NC(C)=O)C(C)C)[C@@H](C)CC)C(C)C)C(=O)NC[C@H](C)C(=O)N[C@H](C(=O)N[C@@H](CCC(=O)O)C(=O)NCC(=O)N[C@@H](CCSC)C(=O)N[C@@H](CO)C(=O)N[C@@H](CCCCN)C(=O)N[C@@H](Cc1c[nH]c2ccccc12)C(=O)N[C@@H](CO)C(=O)N[C@@H](CCCCN)C(=O)N[C@@H](CCCNC(=N)N)C(=O)N[C@@H](CCCCN)C(=O)N[C@@H](CCCCN)C(N)=O)[C@@H](C)CC (HELM PEPTIDE1{[ac].V.I.K.L.S.G.R.E.L.V.R.A.Q.I.[C[C@@H](CN[*:1])C(=O)[*:2]].I.E.G.M.S.K.W.S.K.R.K.K.[am]}$$$$V2.0)	0.046	98
CCCC[C@H](OC(=O)CNC(=O)[C@H](CCC(=O)O)NC(=O)[C@@H](C)CNC(=O)[C@@H](C)CNC(=O)[C@@H](NC(=O)[C@H](CCCCCNC(C)=O)NC(=O)[C@@H](C)CNC(=O)[C@@H](C)CNC(=O)[C@H](CCCCN)NC(=O)[C@H](C)NC(=O)[C@H](CCCNC(=N)N)NC(=O)[C@@H](NC(=O)[C@H](CCCCN)NC(=O)[C@H](CCC(=O)O)NC(=O)[C@H](CCCNC(=N)N)NC(=O)CNC(=O)[C@H](CCC(=O)O)NC(=O)[C@H](CC(C)C)NC(C)=O)C(C)C)[C@@H](C)CC)C(=O)N[C@@H](CO)C(=O)N[C@H](C(=O)N[C@@H](Cc1c[nH]c2ccccc12)C(=O)N[C@@H](CO)C(=O)NC[C@H](C)C(=O)N[C@@H](CCCNC(=N)N)C(=O)N[C@@H](CCCCN)C(=O)N[C@@H](CCCCN)C(N)=O)[C@@H](C)O (Ac-LEGREKVRAK[β2hAla(2S)][β2hAla(2S)][hLys](Ac)I[β2hAla(2S)][β2hAla(2S)]EG[X4]STWS[β2hAla(2S)]RKK-NH2)	0.045	95
Ac-EEVIKLSGRELVRAQIAISGMSTWSKRKK-NH2	0.897	92
CC[C@H](C)[C@H](NC(=O)[C@H](CCC(N)=O)NC(=O)[C@H](C)NC(=O)[C@H](CCCNC(=N)N)NC(=O)[C@@H](NC(=O)[C@H](CC(C)C)NC(=O)[C@H](CCC(=O)O)NC(=O)[C@H](CCCNC(=N)N)NC(=O)CNC(=O)[C@H](CO)NC(=O)[C@H](CC(C)C)NC(=O)[C@H](CCCCN)NC(=O)[C@@H](NC(=O)[C@@H](NC(=O)[C@H](CCC(=O)O)NC(=O)[C@H](CCC(=O)O)NC(C)=O)C(C)C)[C@@H](C)CC)C(C)C)C(=O)NC[C@H](C)C(=O)N[C@H](C(=O)N[C@@H](CO)C(=O)NCC(=O)N[C@@H](CCSC)C(=O)N[C@@H](CO)C(=O)N[C@H](C(=O)N[C@@H](Cc1c[nH]c2ccccc12)C(=O)N[C@@H](CO)C(=O)N[C@@H](CCCCN)C(=O)N[C@@H](CCCNC(=N)N)C(=O)N[C@@H](CO)C(=O)N[C@@H](CC(C)C)C(N)=O)[C@@H](C)O)[C@@H](C)CC (HELM PEPTIDE1{[ac].E.E.V.I.K.L.S.G.R.E.L.V.R.A.Q.I.[C[C@@H](CN[*:1])C(=O)[*:2]].I.S.G.M.S.T.W.S.K.R.S.L.[am]}$$$$V2.0)	0.498	86
CC[C@H](C)[C@H](NC(=O)[C@H](CCC(N)=O)NC(=O)[C@H](C)NC(=O)[C@H](CCCNC(=N)N)NC(=O)[C@@H](NC(=O)[C@H](CCCCN)NC(=O)[C@H](CCC(=O)O)NC(=O)[C@H](CCCNC(=N)N)NC(=O)CNC(=O)[C@H](CCC(=O)O)NC(=O)[C@H](CC(C)C)NC(=O)[C@H](CCCCN)NC(=O)[C@@H](NC(=O)[C@@H](NC(=O)[C@H](CCC(=O)O)NC(=O)[C@H](CCC(=O)O)NC(C)=O)C(C)C)[C@@H](C)CC)C(C)C)C(=O)NC[C@H](C)C(=O)N[C@H](C(=O)N[C@@H](CCC(=O)O)C(=O)NCC(=O)N[C@@H](CCSC)C(=O)N[C@@H](CO)C(=O)N[C@@H](CCCCN)C(=O)N[C@@H](Cc1c[nH]c2ccccc12)C(=O)N[C@@H](CO)C(=O)N[C@@H](CCCCN)C(=O)N[C@@H](CCCNC(=N)N)C(=O)N[C@@H](CCCCN)C(=O)N[C@@H](CCCCN)C(N)=O)[C@@H](C)CC (HELM PEPTIDE1{[ac].E.E.V.I.K.L.E.G.R.E.K.V.R.A.Q.I.[C[C@@H](CN[*:1])C(=O)[*:2]].I.E.G.M.S.K.W.S.K.R.K.K.[am]}$$$$V2.0)	0.045	97
CC[C@H](C)[C@H](NC(=O)[C@H](CCC(N)=O)NC(=O)[C@H](C)NC(=O)[C@H](CCCNC(=N)N)NC(=O)[C@@H](NC(=O)[C@H](CC(C)C)NC(=O)[C@H](CCC(=O)O)NC(=O)[C@H](CCCNC(=N)N)NC(=O)CNC(=O)[C@H](CO)NC(=O)[C@H](CC(C)C)NC(=O)[C@H](CCCCN)NC(=O)[C@@H](NC(=O)[C@@H](NC(=O)[C@H](CCC(=O)O)NC(=O)[C@H](CCC(=O)O)NC(C)=O)C(C)C)[C@@H](C)CC)C(C)C)C(=O)N[C@@H](C)C(=O)NC[C@H](C)C(=O)N[C@@H](CO)C(=O)NCC(=O)N[C@@H](CCSC)C(=O)N[C@@H](CO)C(=O)N[C@H](C(=O)N[C@@H](Cc1c[nH]c2ccccc12)C(=O)N[C@@H](CO)C(=O)N[C@@H](CCCCN)C(=O)N[C@@H](CCCNC(=N)N)C(=O)N[C@@H](CO)C(=O)N[C@@H](CC(C)C)C(N)=O)[C@@H](C)O (HELM PEPTIDE1{[ac].E.E.V.I.K.L.S.G.R.E.L.V.R.A.Q.I.A.[C[C@@H](CN[*:1])C(=O)[*:2]].S.G.M.S.T.W.S.K.R.S.L.[am]}$$$$V2.0)	0.2	91

These reach a lower EC50 [1]. Values come first.

EC50 [1] [µM]	Emax [2] [%]	Molecule
0.0195	99	CC[C@H](C)[C@H](NC(=O)[C@H](CCC(N)=O)NC(=O)[C@H](C)NC(=O)[C@H](CCCNC(=N)N)NC(=O)[C@@H](NC(=O)[C@H](CCCCN)NC(=O)[C@H](CCC(=O)O)NC(=O)[C@H](CCCNC(=N)N)NC(=O)CNC(=O)[C@H](CCC(=O)O)NC(=O)[C@H](CC(C)C)NC(=O)[C@H](CCCCN)NC(=O)[C@@H](NC(=O)[C@@H](NC(C)=O)C(C)C)[C@@H](C)CC)C(C)C)C(=O)NC[C@H](C)C(=O)NC[C@H](C)C(=O)N[C@@H](CCC(=O)O)C(=O)NCC(=O)N[C@@H](CCSC)C(=O)N[C@@H](CO)C(=O)N[C@@H](CCCCN)C(=O)N[C@@H](Cc1c[nH]c2ccccc12)C(=O)N[C@@H](CO)C(=O)NC[C@H](C)C(=O)N[C@@H](CCCNC(=N)N)C(=O)N[C@@H](CCCCN)C(=O)N[C@@H](CCCCN)C(N)=O (Ac-VIKLEGREKVRAQI[β2hAla(2S)][β2hAla(2S)]EGMSKWS[β2hAla(2S)]RKK-NH2)
0.032	96	CCCC[C@H](OC(=O)CNC(=O)[C@H](CCC(=O)O)NC(=O)[C@@H](C)CNC(=O)[C@@H](NC(=O)[C@H](CCC(N)=O)NC(=O)[C@H](C)NC(=O)[C@H](CCCNC(=N)N)NC(=O)[C@@H](NC(=O)[C@H](CCCCN)NC(=O)[C@H](CCC(=O)O)NC(=O)[C@H](CCCNC(=N)N)NC(=O)CNC(=O)[C@H](CCC(=O)O)NC(=O)[C@H](CC(C)C)NC(C)=O)C(C)C)[C@@H](C)CC)C(=O)N[C@@H](CO)C(=O)N[C@H](C(=O)N[C@@H](Cc1c[nH]c2ccccc12)C(=O)N[C@@H](CO)C(=O)NC[C@H](C)C(=O)N[C@@H](CCCNC(=N)N)C(=O)N[C@@H](CCCCN)C(=O)N[C@@H](CCCCN)C(=O)N[C@@H](CCCCCNC(C)=O)C(N)=O)[C@@H](C)O (Ac-LEGREKVRAQI[β2hAla(2S)]EG[X4]STWS[β2hAla(2S)]RKK[hLys](Ac)-NH2)
